# According to patent US11952584B2, “Functional peptides having antimicrobial activity against phytopathogenic microorganisms” (TOYOTA JIDOSHA KABUSHIKI KAISHA, priority 2019, dated 2024):
# Several values for one entry are separate records, joined by “and”; a condition that tells them apart may be missing. Identical values can stand only once. Like-named read-outs stand apart in the source and are kept apart here.
# What was measured:
# Type in all cases: cell-based
# Pyricularia oryzae = conditions: 25° C., 1 day or 2 days
# [1] = tested on: Colletotrichum destructivum; conditions: 25° C., 1 day or 2 days
# [2] = tested on: Colletotrichum orbiculare; conditions: 25° C., 1 day or 2 days
# Fusarium oxysporum = tested on: Fusarium oxysporum
# Botrytis cinerea = conditions: 25° C., 1 day or 2 days
Substance,Plate antimicrobial activity test Pyricularia oryzae (level) (Pyricularia oryzae; peptide 1 μM),Plate antimicrobial activity test Pyricularia oryzae (level) (Pyricularia oryzae; peptide 10 μM),Plate antimicrobial activity test Pyricularia oryzae (level) (Pyricularia oryzae; peptide 100 μM),Plate antimicrobial activity test Colletotrichum destructivum (level) ([1]; peptide 1 μM),Plate antimicrobial activity test Colletotrichum destructivum (level) ([1]; peptide 10 μM),Plate antimicrobial activity test Colletotrichum destructivum (level) ([1]; peptide 100 μM),Plate antimicrobial activity test Collectotrichum orbiculare (level) ([2]; peptide 1 μM),Plate antimicrobial activity test Collectotrichum orbiculare (level) ([2]; peptide 10 μM),Plate antimicrobial activity test Collectotrichum orbiculare (level) ([2]; peptide 100 μM),Plate antimicrobial activity test Fusarium oxysporum (level) (Fusarium oxysporum),Plate antimicrobial activity test Botrytis cinerea (level) (Botrytis cinerea; peptide 1 μM),Plate antimicrobial activity test Botrytis cinerea (level) (Botrytis cinerea; peptide 10 μM),Plate antimicrobial activity test Botrytis cinerea (level) (Botrytis cinerea; peptide 100 μM)
ERTRK (listed as Solanum lycopersicum) [TsORF18-2-5aa-9],0,0,0,0,0,0,0,0,0,0,0,0,0
KGKTS (listed as Solanum lycopersicum) [TsORF18-2-5aa-19],0,0,0,0,0,0,0,0,0,0,0,0,0
YGFPAFSE (listed as Solanum lycopersicum) [TsORF18-2-8aa-2],0,0,0,0,0,0,0,0,0,0,0,0,0
RIWKGKTS (listed as Solanum lycopersicum) [TsORF18-2-8aa-16],0,0,0,0,0,0,0,0,1,1 and 0,0,0,2
FPAFSERT (listed as Solanum lycopersicum) [TsORF18-2-8aa-4],0,0,0,0,0,0,0,0,0,0,0,0,0
TRKFW (listed as Solanum lycopersicum) [TsORF18-2-5aa-11],0,0,0,0,0,0,0,0,0,0,0,0,0
YYGFP (listed as Solanum lycopersicum) [TsORF18-2-5aa-1],0,0,0,0,0,0,0,0,0,0,0,0,0
